Source: US20240210394A1, “MICROORGANISM CAPTURE FROM ANTIMICROBIAL-CONTAINING SOLUTION” (MOMENTUM BIOSCIENCE LIMITED, priority 2019, published 2024)

Columns and labels:
Klebsiella pneumoniae [1] = conditions: K. pneumoniae; cited from earlier work
E. coli [2] = conditions: cited from earlier work
E. coli [3] = test: Blood culture time to positivity (flip time), bead rescue vs no-rescue control; assay type: cell-based; conditions: Meropenem 49 mg/L blood; for Flip time: Bead rescue; for Flip time in Days: Control (FA plus bottle)
Protocol: (§1) Day 1: Prepare overnight culture of test organism in blood/broth medium (50:50 blood:broth) and incubate at 37° C. in a shaking incubator.
Day 2: Prepare ten-fold serial dilution of overnight culture in blood/broth as required and incubate at 37° C. for 2 h for outgrowth.
Add 5 mL of spiked blood+beads (set 1) and 5 mL of spiked blood/Abx+beads (set 3) to blood culture bottles (BioMerieux SA culture bottle) using a vial adapter (West Pharmaceutical Services, Inc. PA, US).
Remove the adaptor and incubate the blood culture bottles in the automated blood culture cabinet (BacT/ALERT BioMerieux) for up to 5 days.
(§2) Record the “Flip” time of each bottle or bottle result at the end of 5 days incubation. The “Flip” time is when a bottle turns positive as determined by the automated blood culture cabinet, which records time to positivity.
(§3) Day 1: Prepare overnight culture of test organism in blood/broth medium (50:50 blood:broth) and incubate at 37° C. (or 30° C. for C. neoformans) in a shaking incubator.
(or 30° C. for C. neoformans) for 2 h for outgrowth. • Antibiotic added to whole blood (defibrinated horse blood) at required level • Whole blood as no-antibiotic control • Test dilution(s) of organism added to blood+antibiotic or blood only at 10 μL per mL of blood (sufficient prepared for experiment requirements) • 100 μL plate count sample taken (TO sample) • 2-hour incubation (static) at 37° C. (or 30° C. for C. neoformans) • 100 μL plate count sample taken (T2 sample) • 5 mL of spiked blood+abx or blood only added to blood culture bottle (using vial adapter) and incubation started (adapter removed) • 5 mL of spiked blood+abx or blood only (from same source) treated with Momentum Capture Beads as below: • 1. Capture Beads diluted in the relevant Capture Reagent—50 μL beads:700 μL capture reagent per clean-up • 2. 750 μL of diluted beads added to 50 mL conical centrifuge tube • 3. 5 mL of transfer medium added to tube • 4. 5 mL of spiked blood+abx or blood only added to tube • 5. […] Magnetise on V&P magnet for 10 min then remove supernatant • 7. Resuspend beads in 1 mL Detergent-free Wash Buffer (DWB) off magnet and transfer to 2 mL Eppendorf flip-top tube on DynaMag-2 magnet • 8. Magnetise for 3 min then remove supernatant • 9. Resuspend beads in 1 mL Detergent-free Wash Buffer (DWB) off magnet then replace on DynaMag-2 magnet • 10. Magnetise for 3 min then remove supernatant • 11. Resuspend beads in 1 mL DWB, add to new blood culture bottle (using vial adapter) and start incubation (adapter removed)
Momentum Capture Beads diluted in the relevant Capture Reagent—50 μL beads:700 μL capture reagent per clean-up • 2. 750 μL of diluted beads added to 50 mL conical centrifuge tube • 3. 5 mL of transfer medium added to tube • 4. 5 mL of spiked blood+abx or blood only added to tube • 5. […] Magnetise on V&P magnet for 10 min then remove supernatant • 7. Resuspend beads in 1 mL Detergent-free Wash Buffer (DWB) off magnet and transfer to 2 mL Eppendorf flip-top tube on DynaMag-2 magnet • 8. Magnetise for 3 min then remove supernatant • 9. Resuspend beads in 1 mL Detergent-free Wash Buffer (DWB) off magnet then replace on DynaMag-2 magnet • 10. Magnetise for 3 min then remove supernatant • 11. Resuspend beads in 1 mL DWB, add to an unused blood culture bottle (BioMerieux FA+culture bottle) using vial adapter and start incubation (adapter removed)

Klebsiella pneumoniae [4] = test: as above; assay type: cell-based; conditions: Meropenem 49 mg/L blood; for Flip time: Bead rescue; for Flip time in Days: Control (FA plus bottle)
Protocol: as §3
(§4) (or 30° C. for C. neoformans) for 2 h for outgrowth. • Antibiotic added to whole blood (defibrinated horse blood) at required level • Whole blood as no-antibiotic control • Test dilution(s) of organism added to blood+antibiotic or blood only at 10 μL per mL of blood (sufficient prepared for experiment requirements) • 100 μL plate count sample taken (TO sample) • 2-hour incubation (static) at 37° C. (or 30° C. for C. neoformans) • 100 μL plate count sample taken (T2 sample) • 5 mL of spiked blood+abx or blood only added to blood culture bottle (using vial adapter) and incubation started (adapter removed) • 5 mL of spiked blood+abx or blood only (from same source) treated with Momentum Capture Beads as below: • 1. Capture Beads diluted in the relevant Capture Reagent—50 μL beads:700 μL capture reagent per clean-up • 2. 750 μL of diluted beads added to 50 mL conical centrifuge tube • 3. 5 mL of transfer medium added to tube • 4. 5 mL of spiked blood+abx or blood only added to tube • 5. Incubate on ITL TherMix (32.5° C./30 min/1000 rpm—ramped speed protocol) • 6. Magnetise on V&P magnet for 10 min then remove supernatant • 7. Resuspend beads in 1 mL Detergent-free Wash Buffer (DWB) off magnet and transfer to 2 mL Eppendorf flip-top tube on DynaMag-2 magnet • 8. Magnetise for 3 min then remove supernatant • 9. Resuspend beads in 1 mL Detergent-free Wash Buffer (DWB) off magnet then replace on DynaMag-2 magnet • 10. Magnetise for 3 min then remove supernatant • 11. Resuspend beads in 1 mL DWB, add to new blood culture bottle (using vial adapter) and start incubation (adapter removed)
as §2, §1
(§5) Momentum Capture Beads diluted in the relevant Capture Reagent—50 μL beads:700 μL capture reagent per clean-up • 2. 750 μL of diluted beads added to 50 mL conical centrifuge tube • 3. 5 mL of transfer medium added to tube • 4. 5 mL of spiked blood+abx or blood only added to tube • 5. Incubate on ITL TherMix (32.5° C./30 min/1000 rpm—ramped speed protocol) • 6. Magnetise on V&P magnet for 10 min then remove supernatant • 7. Resuspend beads in 1 mL Detergent-free Wash Buffer (DWB) off magnet and transfer to 2 mL Eppendorf flip-top tube on DynaMag-2 magnet • 8. Magnetise for 3 min then remove supernatant • 9. Resuspend beads in 1 mL Detergent-free Wash Buffer (DWB) off magnet then replace on DynaMag-2 magnet • 10. Magnetise for 3 min then remove supernatant • 11. Resuspend beads in 1 mL DWB, add to an unused blood culture bottle (BioMerieux FA+culture bottle) using vial adapter and start incubation (adapter removed)

Pseudomonas aeruginosa [5] = test: as above; assay type: cell-based; conditions: Meropenem 49 mg/L blood
Protocol: as §3, §4, §2, §1, §5

Pseudomonas aeruginosa [6] = conditions: P. aeruginosa; cited from earlier work

C[C@@H](O)[C@H]1C(=O)N2C(C(=O)O)=C(S[C@@H]3CN[C@H](C(=O)N(C)C)C3)[C@H](C)[C@H]12 [Meropenem]
MIC (Klebsiella pneumoniae [1]): ≤1 µg/mL | MIC (E. coli [2]): ≤1 µg/mL | Flip time (E. coli [3]; 900 cfu/5 mL blood): 0.56 days | Flip time (E. coli [3]; 150000 cfu/5 mL blood): 0.46 days | Flip time (E. coli [3]; 1500000 cfu/5 mL blood): 0.43 days | Flip time in Days (E. coli [3]; 900 cfu/5 mL blood): Neg | Flip time in Days (E. coli [3]; 150000 cfu/5 mL blood): Neg | Flip time in Days (E. coli [3]; 1500000 cfu/5 mL blood): Neg | Flip time (Klebsiella pneumoniae [4]; 125000 cfu/5 mL blood): 0.43 days | Flip time (Klebsiella pneumoniae [4]; 1250000 cfu/5 mL blood): 0.38 days | Flip time in Days (Klebsiella pneumoniae [4]; 125000 cfu/5 mL blood): Neg | Flip time in Days (Klebsiella pneumoniae [4]; 1250000 cfu/5 mL blood): Neg | Flip time (Pseudomonas aeruginosa [5]; Bead rescue, 1250 cfu/5 mL blood): 0.81 days | Flip time (Pseudomonas aeruginosa [5]; Bead rescue, 200000 cfu/5 mL blood): 0.54 days | Flip time (Pseudomonas aeruginosa [5]; Bead rescue, 2000000 cfu/5 mL blood): 0.46 days | Flip time in Days (Pseudomonas aeruginosa [5]; Control (FA plus bottle), 1250 cfu/5 mL blood): Neg | Flip time (Pseudomonas aeruginosa [5]; Control (FA plus bottle), 200000 cfu/5 mL blood): 0.9 days | Flip time (Pseudomonas aeruginosa [5]; Control (FA plus bottle), 2000000 cfu/5 mL blood): 0.81 days | MIC (Pseudomonas aeruginosa [6]): ≤1 µg/mL
